Results: PMC8069214, “Synthesis, Biological Evaluation, and Molecular Modeling of Aza-Crown Ethers” (Molecules, 2021)

Assays:
[1] = target: T1, FPR1 (Homo sapiens, UniProt P21462); test: Inhibition of fMLF-induced [Ca2+]i flux in FPR1-HL60 cells; format: cell-based; details: 10 min preincubation, 5 nM fMLF; N.A. = no activity at < 50 µM; read-out: FPR1/FPR2 Agonist-Induced Δ[Ca^2+]i FPR1-HL60 IC50
T1 construct: expressed in transfected cells
T1 sequence (P21462 1-350): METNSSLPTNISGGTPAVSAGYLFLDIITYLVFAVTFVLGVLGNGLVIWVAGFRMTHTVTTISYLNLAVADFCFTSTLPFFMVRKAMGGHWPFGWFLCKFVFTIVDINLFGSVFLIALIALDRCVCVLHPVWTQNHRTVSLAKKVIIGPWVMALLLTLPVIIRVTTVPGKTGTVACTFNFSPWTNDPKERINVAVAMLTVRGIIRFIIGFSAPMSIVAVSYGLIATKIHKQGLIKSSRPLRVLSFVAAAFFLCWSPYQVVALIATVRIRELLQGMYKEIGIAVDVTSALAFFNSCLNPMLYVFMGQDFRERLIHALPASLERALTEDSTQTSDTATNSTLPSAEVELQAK
Experimental: (§1) Since these compounds elevated neutrophil [Ca^2+]i, and cytosolic Ca^2+ flux is a key component of neutrophil activation, we evaluated if they could alter neutrophil activation by FPR1 or FPR2 agonists. Neutrophils and FPR-transfected HL60 cells were preincubated for 10 min with crown ether compounds, and [Ca^2+]i flux was stimulated with either an FPR1 agonist (fMLF for human neutrophils and FPR1-HL60 cells) or an FPR2 agonist (WKYMVM for FPR2-HL60 cells).
(§2) Human promyelocytic leukemia HL60 cells stably transfected with FPR1 (FPR1-HL60 cells) or FPR2 (FPR2-HL60 cells) (kind gifts from Dr. Marie-Josephe Rabiet, INSERM, Grenoble, France) were cultured in RPMI 1640 medium supplemented with 10% heat-inactivated fetal calf serum, 10 mM HEPES, 100 μg/mL streptomycin, 100 U/mL penicillin, and G418 (1 mg/mL). Although stable cell lines are cultured under G418 selection pressure, G418 may affect some assays, so it was removed in the last round of culture before assays were performed.
(§3) Changes in neutrophil intracellular Ca^2+ concentrations ([Ca^2+]i) were measured with a FlexStation 3 scanning fluorometer (Molecular Devices, Sunnyvale, CA, USA). Briefly, human neutrophils were suspended in HBSS^−, loaded with Fluo-4AM at a final concentration of 1.25 μg/mL, and incubated for 30 min in the dark at 37 °C. After dye loading, the cells were washed with HBSS^−, resuspended in HBSS^+, separated into aliquots, and loaded into the wells of flat-bottom, half-area well black microtiter plates (2 × 10^5 cells/well). To assess the direct effects of test compounds on Ca^2+ flux, the compounds were added to the wells (final concentration of DMSO was 1%), and changes in fluorescence were monitored (λex = 485 nm, λem = 538 nm) every 5 s for 240 s at room temperature after addition of the test compound. To evaluate inhibitory effects of the compounds on FPR1/FPR2-dependent Ca^2+ flux, the compounds were added to the wells (final concentration of DMSO was 1%) with cells (human neutrophils or FPR1/FPR2 HL60 cells). The samples were preincubated for 10 min, followed by addition of 5 nM fMLF (for human neutrophils or FPR1-HL60 cells) or 5 nM WKYMVM (for FPR2-HL60 cells). The maximum change in fluorescence, expressed in arbitrary units over baseline, was used to determine the agonist response. Responses were normalized to the response induced by 5 nM fMLF or 5 nM WKYMVM, which were assigned as 100%. Curve fitting (at least five or six points) and calculation of median effective concentration values (EC50 or IC50) were performed by nonlinear regression analysis of the dose–response curves generated using Prism 7 (GraphPad Software, Inc., San Diego, CA, USA). Efficacy was determined by comparing individual responses activated by the test compounds to that induced by a positive control (5 nM fMLF), which was assigned a value of 100%.

[2] = tested on: human neutrophils; test: Inhibition of fMLF-induced [Ca2+]i flux in human neutrophils; format: cell-based; details: Neutrophil, 10 min preincubation, 5 nM fMLF, N.A. = no activity at < 50 µM, read-out: FPR1/FPR2 Agonist-Induced Δ[Ca^2+]i Neutrophils IC50
Experimental: as §1, §3

[3] = target: T2, FPR2 (Homo sapiens, UniProt P25090); test: Inhibition of WKYMVM-induced [Ca2+]i flux in FPR2-HL60 cells; format: cell-based; details: 10 min preincubation, 5 nM WKYMVM; N.A. = no activity at < 50 µM; read-out: FPR1/FPR2 Agonist-Induced Δ[Ca^2+]i FPR2-HL60 IC50
T2 construct: expressed in transfected cells
T2 sequence (P25090 1-351): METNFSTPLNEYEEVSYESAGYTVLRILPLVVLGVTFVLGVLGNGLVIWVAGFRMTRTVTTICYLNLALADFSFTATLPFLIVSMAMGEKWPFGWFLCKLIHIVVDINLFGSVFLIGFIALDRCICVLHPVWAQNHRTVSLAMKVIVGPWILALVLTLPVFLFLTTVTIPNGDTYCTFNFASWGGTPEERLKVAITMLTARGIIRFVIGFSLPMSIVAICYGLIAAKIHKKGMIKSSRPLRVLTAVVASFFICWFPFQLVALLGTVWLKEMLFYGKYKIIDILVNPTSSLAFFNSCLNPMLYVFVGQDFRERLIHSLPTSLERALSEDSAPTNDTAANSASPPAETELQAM
Experimental: as §1, §2, §3

| IC50 [1] [µM] | IC50 [2] [µM] | IC50 [3] [µM] | melting point [°C] | Compound |
| --- | --- | --- | --- | --- |
| 11.6 ± 2.1 | 3.5 ± 0.4 | 8.3 ± 2.3 | – | O=C(N1CCOCCOCCOCCN(C(=O)C23CC4CC(CC(C4)C2)C3)CCOCC1)C12CC3CC(CC(C3)C1)C2 [Compound 14, N,N’-bis[1-oxo-1-(1-adamantyl)methyl]-4,10-diaza-18-crown-6] |
| 4.8 ± 0.9 | 4.1 ± 0.6 | 7.2 ± 1.7 | 72 to 76 | O=C(CC12CC3CC(CC(C3)C1)C2)N1CCOCCOCCN(C(=O)CC23CC4CC(CC(C4)C2)C3)CCOCC1 [Compound 15, N,N’-bis[2-(1-adamantyl)acetyl]-4,10-diaza-15-crown-5] |
| 16.5 ± 3.2 | 7.4 ± 1.3 | 32.6 ± 4.5 | – | O=C(N1CCOCCOCCN(C(=O)C23CC4CC(CC(C4)C2)C3)CCOCC1)C12CC3CC(CC(C3)C1)C2 [Compound 13, N,N’-bis[1-oxo-1-(1-adamantyl)methyl]-4,10-diaza-15-crown-5] |
| 3.7 ± 0.7 | 1.5 ± 0.4 | 7.6 ± 1.9 | – | O=C(CC12CC3CC(CC(C3)C1)C2)N1CCOCCOCCN(C(=O)CC23CC4CC(CC(C4)C2)C3)CCOCCOCC1 [Compound 17, N,N’-bis[2-(1-adamantyl)acetyl]-4,13-diaza-18-crown-6] |
